# Laboratory results taken from PubChem BioAssay (NCI).
#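 Interpolation was linear, between the two tested concentrations surrounding the appropriate level; five concentrations were tested over 48 hours in 96-well plates. GI50 is the concentration that inhibits growth by half. TGI denotes the concentration required for complete inhibition of growth.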
# Test system: M14 melanoma
# Assay: growth of human tumour cells (NCI), 48 h
SMILES,GI50 [µM],TGI [µM]
O=C1/C(=C/N2N=C(c3ccc4ccccc4c3)CC2c2ccccc2O)SC(=S)N1c1cccnc1 (stereo not given),0.84,> 100
CCOC(=O)C1=C(Nc2ccc(Br)cc2)OCC1=O,,> 100
CCOc1ccc(N=Cc2c3ccccc3nc3ccccc23)cc1,,> 100
Nc1ccc(C2=N/C(=C\c3cccc(N)c3)C(=O)O2)cc1,,> 100
CC(=O)[CH-]C(=O)c1ccccc1.CC(=O)[CH-]C(=O)c1ccccc1.O=S(=O)([O-])c1cc([O-])c2c([O-])cc(S(=O)(=O)[O-])cc2c1.[Na+].[Ti+4],> 100,> 100
Cc1cc(NCCCCNc2ccnc3cc(Cl)ccc23)nc(Nc2ccc(C(=O)N3CCCCC3)cc2)n1,0.197,0.383
NCCN.O=C([O-])[O-].O=C([O-])[O-].[Co+3].[K+],> 100,> 100
C1=NC(N(Cc2ccccc2)Cc2ccccc2)N(Cc2ccccc2)N1 (stereo not given),,23.1
NC(=O)CNc1ccc([As]=[As]c2ccc(NCC(N)=O)cc2)cc1 (stereo not given),5.02,20.6

# Test system: MDA-MB-231 breast
# Assay: growth of human tumour cells (NCI), 48 h
SMILES,TGI [µM],GI50 [µM]
COC(=O)C(=O)CC(=O)c1cccc(OC)c1,> 100,
COc1cc2c3c(n(CCCN(CCO)CCO)c(=O)c2cc1OC)-c1cc2c(cc1C3=O)OCO2,2.42,0.583
CNCCn1c(=O)c2cc(OC)c(OC)cc2c2cnc3cc4c(cc3c21)OCO4,1.67,0.19
COc1ccc2c(c1)C(C)Cc1c(ncnc1-n1cnc3ccccc31)N2C (stereo not given),4.35,1.04
O=C(NNc1cnccn1)c1nc2cc(F)ccc2n2cccc12,> 100,0.597
C=C1C(=O)OC2C1CC(OC(C)=O)/C(C)=C/CCC1(C)OC21 (stereo not given),> 100,
COc1cc(/C=C/C(=O)C(C(=O)/C=C/c2ccc(OC(=O)CCNC34CC5CC(CC(C5)C3)C4)c(OC)c2)C(=O)CCNC23CC4CC(CC(C4)C2)C3)ccc1OC(=O)CCNC12CC3CC(CC(C3)C1)C2 (stereo not given),26.5,3.99
O=C1/C(=C/N2N=C(c3ccc4ccccc4c3)CC2c2ccccc2O)SC(=S)N1c1cccnc1 (stereo not given),8.34,2.29
NC(=O)CNc1ccc([As]=[As]c2ccc(NCC(N)=O)cc2)cc1 (stereo not given),21,3.27

# Test system: NCI-H522 lung
# Assay: growth of human tumour cells (NCI), 48 h
SMILES,TGI [µM],GI50 [µM]
CCc1cccc(C)c1NC(=O)CC1C(=O)Nc2ccccc2S1=O (stereo not given),> 100,
Cc1ccc(N2C(=O)N(c3ccc(C)cc3)C3(SC=NN3C)C2=O)cc1 (stereo not given),> 100,
O=C1c2ccc3c4ccccc4n(-c4ccccc4)c3c2C(=O)N1c1ccc(Cl)cc1,> 100,
Cc1ccc2c(c1-c1ccccc1)C(=O)OC2,> 100,
NC(CCc1ncc(C(=O)O)s1)C(=O)O (stereo not given),> 100,
CSc1ccc2c(cc1=O)[C@@H](NC(=O)c1cc(O)c(O)c(O)c1)CCc1cc(O)c(O)c(O)c1-2,44.4,
CNCCn1c(=O)c2cc(OC)c(OC)cc2c2cnc3cc4c(cc3c21)OCO4,0.0261,< 0.01
COc1cc(-c2nnc3n2NC=C(C(=O)O)S3)cc(OC)c1OC,> 100,
O=C1c2ccccc2C(=O)N1C/C=N/NS(=O)(=O)c1ccc(Br)cc1,> 100,
COc1ccc2c(c1)C(C)Cc1c(ncnc1-n1cnc3ccccc31)N2C (stereo not given),0.744,0.254
NC(=O)c1cn(Cc2ccccc2)c(=O)n1Cc1ccccc1,> 100,
Cc1c(Cl)cccc1NC(=O)c1cccc([N+](=O)[O-])c1O,31.6,
CC1COS(=O)O1 (stereo not given),> 100,
N#CC(C#N)=C1CCCOc2c1ccc1ccccc21,> 100,> 100
O=C1C=CC(=CC=C2C=CN(CCCCCCCCCCC(=O)NCCCCCCCCCCCC(=O)O)C=C2)C=C1,> 100,
N#Cc1c(-c2ccco2)cc(-c2ccc(N)cc2)[nH]c1=O,> 100,

SMILES,TGI [µM],GI50 [µM]
C=CCC1(C)CCCCC1(O)CS(=O)c1ccccc1 (stereo not given),> 100,
C1COCCSC2=C(SCCO1)SC(=C1SC3=C(SCCOCCOCCS3)S1)S2,> 100,
CC12CCC(=O)N1c1cccnc1N2 (stereo not given),> 100,
COc1cc2c(cc1OC)C1Cc3cc(OC)c(OC)cc3N1CC2 (stereo not given),35,
O=C(NNc1cnccn1)c1nc2cc(F)ccc2n2cccc12,0.963,0.281
C=C1C(=O)OC2C1CC(OC(C)=O)/C(C)=C/CCC1(C)OC21 (stereo not given),> 100,
COc1cc(/C=C/C(=O)C(C(=O)/C=C/c2ccc(OC(=O)CCNC34CC5CC(CC(C5)C3)C4)c(OC)c2)C(=O)CCNC23CC4CC(CC(C4)C2)C3)ccc1OC(=O)CCNC12CC3CC(CC(C3)C1)C2 (stereo not given),15.2,3.46
O=C1C2[C@@H](C(=O)N1c1ccc(Br)cc1)C13C(=CC2([N+](=O)[O-])[C@@H]2C(=O)N(c4ccc(Br)cc4)C(=O)[C@@H]21)c1ccccc1N3c1ccccc1 (stereo not given in full),> 100,
CCOC(=O)C1=C(Nc2ccc(Br)cc2)OCC1=O,> 100,
CCOc1ccc(N=Cc2c3ccccc3nc3ccccc23)cc1,> 100,
Nc1ccc(C2=N/C(=C\c3cccc(N)c3)C(=O)O2)cc1,> 100,
CC(=O)[CH-]C(=O)c1ccccc1.CC(=O)[CH-]C(=O)c1ccccc1.O=S(=O)([O-])c1cc([O-])c2c([O-])cc(S(=O)(=O)[O-])cc2c1.[Na+].[Ti+4],> 100,70.7
Cc1cc(NCCCCNc2ccnc3cc(Cl)ccc23)nc(Nc2ccc(C(=O)N3CCCCC3)cc2)n1,4.22,1.86
NCCN.O=C([O-])[O-].O=C([O-])[O-].[Co+3].[K+],> 100,> 100
C1=NC(N(Cc2ccccc2)Cc2ccccc2)N(Cc2ccccc2)N1 (stereo not given),40.9,

# Test system: OVCAR-3 ovarian
# Assay: growth of human tumour cells (NCI), 48 h
SMILES,TGI [µM],GI50 [µM]
CCc1cccc(C)c1NC(=O)CC1C(=O)Nc2ccccc2S1=O (stereo not given),> 100,
Cc1ccc(N2C(=O)N(c3ccc(C)cc3)C3(SC=NN3C)C2=O)cc1 (stereo not given),> 100,
O=C1c2ccc3c4ccccc4n(-c4ccccc4)c3c2C(=O)N1c1ccc(Cl)cc1,> 100,
Cc1ccc2c(c1-c1ccccc1)C(=O)OC2,> 100,
CCC[CH2][Sn]1([CH2]CCC)[O]CC(COc2c(Cl)cc(Cl)cc2Cl)[O]1 (stereo not given),3.03,1.65
NC(CCc1ncc(C(=O)O)s1)C(=O)O (stereo not given),> 100,
CSc1ccc2c(cc1=O)[C@@H](NC(=O)c1cc(O)c(O)c(O)c1)CCc1cc(O)c(O)c(O)c1-2,70,
COC(=O)C(=O)CC(=O)c1cccc(OC)c1,> 100,
COc1cc2c3c(n(CCCN(CCO)CCO)c(=O)c2cc1OC)-c1cc2c(cc1C3=O)OCO2,0.295,0.062
CNCCn1c(=O)c2cc(OC)c(OC)cc2c2cnc3cc4c(cc3c21)OCO4,2.02,0.0393
COc1cc(-c2nnc3n2NC=C(C(=O)O)S3)cc(OC)c1OC,> 100,
C[P+](C)(C)c1ccccc1,> 100,
O=C1c2ccccc2C(=O)N1C/C=N/NS(=O)(=O)c1ccc(Br)cc1,> 100,
COc1ccc2c(c1)C(C)Cc1c(ncnc1-n1cnc3ccccc31)N2C (stereo not given),3.41,0.357
NC(=O)c1cn(Cc2ccccc2)c(=O)n1Cc1ccccc1,> 100,
CCOC(=O)C(C)(c1c(C)[nH]c2ccccc12)c1c(C)[nH]c2ccccc12,34,
Cc1c(Cl)cccc1NC(=O)c1cccc([N+](=O)[O-])c1O,51.4,
CC1COS(=O)O1 (stereo not given),> 100,
CC1CCC(C(C)(C)c2ccccc2)C(=O)C1 (stereo not given),> 100,
O=C1CC2CCN(C(=O)c3ccccc3)CC2CCN1 (stereo not given),> 100,
N#CC(C#N)=C1CCCOc2c1ccc1ccccc21,> 100,> 100
CCc1nc(Cl)c(Cl)c(Cl)n1,> 100,
O=C1C=CC(=CC=C2C=CN(CCCCCCCCCCC(=O)NCCCCCCCCCCCC(=O)O)C=C2)C=C1,> 100,
N#Cc1c(-c2ccco2)cc(-c2ccc(N)cc2)[nH]c1=O,> 100,
C=CCC1(C)CCCCC1(O)CS(=O)c1ccccc1 (stereo not given),> 100,
C1COCCSC2=C(SCCO1)SC(=C1SC3=C(SCCOCCOCCS3)S1)S2,> 100,
COc1cc(/C=N\O[Si](C)(C)C(C)(C)C)ccc1O[Si](C)(C)C(C)(C)C,54.1,
CC12CCC(=O)N1c1cccnc1N2 (stereo not given),> 100,
COc1cc2c(cc1OC)C1Cc3cc(OC)c(OC)cc3N1CC2 (stereo not given),> 100,
O=C(NNc1cnccn1)c1nc2cc(F)ccc2n2cccc12,> 100,0.311
